pIC50: −log10 of the molar value. Where two headings read alike, the source gives them in different places.
Columns and labels:
topoisomerase I = molecular target: T1, topoisomerase I (Homo sapiens, UniProt P11387); experiment: Topoisomerase I-mediated DNA cleavage assay (3'-end-labeled 161 bp pBluescript SK(-) fragment); type: biochemical; conditions: for Top 1 Cleavage: relative to the activity of 1 μM camptothecin
T1 sequence (P11387 1-765): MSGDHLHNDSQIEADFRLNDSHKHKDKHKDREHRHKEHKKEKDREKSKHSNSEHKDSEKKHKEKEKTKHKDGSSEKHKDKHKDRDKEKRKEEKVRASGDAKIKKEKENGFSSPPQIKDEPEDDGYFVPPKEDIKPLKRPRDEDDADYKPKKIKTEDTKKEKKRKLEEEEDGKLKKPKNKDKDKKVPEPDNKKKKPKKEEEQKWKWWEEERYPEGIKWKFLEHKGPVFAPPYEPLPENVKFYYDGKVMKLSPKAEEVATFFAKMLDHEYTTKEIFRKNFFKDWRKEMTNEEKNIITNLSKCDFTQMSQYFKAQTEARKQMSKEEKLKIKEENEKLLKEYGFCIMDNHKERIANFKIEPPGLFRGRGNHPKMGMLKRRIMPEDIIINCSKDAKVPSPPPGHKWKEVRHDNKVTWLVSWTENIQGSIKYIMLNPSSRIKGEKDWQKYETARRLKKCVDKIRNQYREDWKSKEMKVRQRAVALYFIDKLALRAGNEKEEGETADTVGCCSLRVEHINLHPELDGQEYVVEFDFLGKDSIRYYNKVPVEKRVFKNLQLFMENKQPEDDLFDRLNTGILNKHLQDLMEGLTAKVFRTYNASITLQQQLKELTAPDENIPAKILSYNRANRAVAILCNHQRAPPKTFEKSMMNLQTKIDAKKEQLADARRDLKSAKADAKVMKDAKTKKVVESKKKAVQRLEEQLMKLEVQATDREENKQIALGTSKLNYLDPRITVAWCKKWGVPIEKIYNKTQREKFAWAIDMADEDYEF
Protocol: Topoisomerase I-Mediated DNA Cleavage Reactions Using 3′-End-labeled 161 BP Plasmid DNA
The 161 bp fragment from pBluescript SK(−) phagemid DNA (Stratagene, La Jolla, Calif.) was cleaved with the restriction endonuclease Pvu II and Hind III (New England Biolabs, Beverly, Mass.) in supplied NE buffer 2 (10 μL reactions) for 1 h at 37° C., separated by electrophoresis in a 1% agarose gel made in 1×TBE buffer. The 161 bp fragment was eluted from the gel slice (centrilutor by Amicon) and concentrated in a centricon 50 centrifugal concentrator (Amicon, Beverly, Mass.). Approximately 200 ng of the fragment was 3′-end-labeled at the Hind III site by fill-in reaction with [alpha-^32P]-dCTP and 0.5 mM dATP, dGTP, and dTTP, in React 2 buffer (50 mM Tris-HCl, pH 8.0, […], 50 mM NaCl) with 0.5 units of DNA polymerase I (Klenow fragment). Labeling reactions were followed by phenol-chloroform extraction and ethanol precipitation. The resulting 161 bp 3′-endlabeled DNA fragment was resuspended in water. Aliquots (approximately 50,000 dpm/reaction) were incubated with topoisomerase I at 30° C. for 15 min in the presence of the indicated drug. Reactions were terminated by adding 0.5% SDS. After ethanol precipitation, the samples were resuspended in loading buffer (80% formamide, 10 mM sodium hydroxide, 1 mM sodium EDTA, 0.1% xylene cyanol, and 0.1% bromophenol blue, pH 8.0), and separated in a denaturing gel (16% polyacrylamide, 7 M urea) run at 51° C. The gel was dried and visualized by using a Phosphoimager and ImageQuant software (Molecular Dynamics, Sunnyvale, Calif.).

HOP-62 = experiment: NCI human cancer cell line screen (COMPARE screening), Lung HOP-62; type: cell-based; conditions: for IC50: Homo sapiens, HOP-62, concentration causing 50% growth inhibition, read-out: Cytotoxicity (G150 in μM) Lung HOP-62
Description: (§1) Considering the diversity of cancer in terms of cell type, morphology, growth rate and other cellular characteristics, the U.S. National Cancer Institute (NCI) has developed a “disease-oriented” approach to anticancer activity screening (M. R. Boyd, in “Principle of Practice of Oncology” […]. Rosenberg (Eds.) Vol. 3, PPO Update, No. 10, 1989). This in vitro prescreening system is based on the measurement of anticancer cytotoxicity against human cancer cell line panels consisting of approximately 60 cell lines of major human cancers (including leukemia and slower growing tumor cells such as lung, colon, breast, skin, kidney, etc.) and is referred hereinafter as “COMPARE” screening. An important advantage of the new in vitro screening panels is the opportunity to facilitate identification of compounds that are selectively more cytotoxic to cells of certain types of cancers, thus increasing the ability to select compounds for further study with respect to specific diseases. The indenoisoquinolines were examined for antiproliferative activity against the human cancer cell lines in the National Cancer Institute screen (COMPARE screening), in which the activity of each compound was evaluated with approximately […] different cancer cell lines of diverse tumor origins.

OVCAR-3 = experiment: NCI human cancer cell line screen (COMPARE screening), Ovarian OVCAR-3; type: cell-based; conditions: for IC50: Homo sapiens, OVCAR-3, concentration causing 50% growth inhibition, read-out: Cytotoxicity (G150 in μM) Ovarian OVCAR-3
Description: as §1

MDA-MB-435 = experiment: NCI human cancer cell line screen (COMPARE screening), Breast MDA-MB-435; type: cell-based; conditions: for IC50: Homo sapiens, MDA-MB-435, concentration causing 50% growth inhibition, read-out: Cytotoxicity (G150 in μM) Breast MDA-MB-435
Description: as §1

UACC-62 = experiment: NCI human cancer cell line screen (COMPARE screening), Melanoma UACC-62; type: cell-based; conditions: for IC50: Homo sapiens, UACC-62, concentration causing 50% growth inhibition, read-out: Cytotoxicity (G150 in μM) Melanoma UACC-62
Description: as §1

HCT-116 = experiment: NCI human cancer cell line screen (COMPARE screening), Colon HCT-116; type: cell-based; conditions: for IC50: Homo sapiens, HCT-116, concentration causing 50% growth inhibition, read-out: Cytotoxicity (G150 in μM) Colon HCT-116
Description: as §1

[1] = system: approximately 55 different cancer cell lines of diverse tumor origins; experiment: NCI screen mean graph midpoint over all cell lines tested; type: cell-based, human; conditions: for pIC50: average GI50 for all cell lines tested (approximately 55), values outside test range taken as 10^-8 or 10^-4 molar, read-out: MGM (mean graph midpoint)
Description: as §1

DU-145 = experiment: NCI human cancer cell line screen (COMPARE screening), Prostate DU-145; type: cell-based; conditions: for IC50: Homo sapiens, DU-145, concentration causing 50% growth inhibition, read-out: Cytotoxicity (G150 in μM) Prostate DU-145
Description: as §1

human topoisomerase II = experiment: Topoisomerase II-mediated DNA cleavage assay (5'-end-labeled human c-myc DNA); type: biochemical
SF-539 = experiment: NCI human cancer cell line screen (COMPARE screening), CNS SF-539; type: cell-based; conditions: Homo sapiens; SF-539; concentration causing 50% growth inhibition; read-out: Cytotoxicity (G150 in μM) CNS SF-539
Description: as §1

SN12C = experiment: NCI human cancer cell line screen (COMPARE screening), Renal SN12C; type: cell-based; conditions: Homo sapiens; SN12C; concentration causing 50% growth inhibition; read-out: Cytotoxicity (G150 in μM) Renal SN12C
Description: as §1

SMILES	Top 1 Cleavage (topoisomerase I)	pIC50 (HOP-62)	pIC50 (OVCAR-3)	pIC50 (MDA-MB-435)	pIC50 (UACC-62)	pIC50 (HCT-116)	cytotoxicity (MGM) relative to lead compound 1 [1]	pIC50 [1]	pIC50 (DU-145)	induction of topoisomerase II cleavage complexes (human topoisomerase II)	IC50 (SF-539) [µM]	IC50 (HOP-62) [µM]	IC50 (OVCAR-3) [µM]	IC50 (MDA-MB-435) [µM]	IC50 (UACC-62) [µM]	IC50 (SN12C) [µM]	IC50 (HCT-116) [µM]	pIC50 ([1]; Homo sapiens)	IC50 (DU-145) [µM]	further results
O=C1c2ccccc2-c2c1c1ccccc1c(=O)n2CCCCCO [Compound 8, 5,6-Dihydroxy-6-(5-hydroxy-1-pentyl)-5,11-diketo-11H-indeno[1,2-c]isoquinoline]	+ (those compounds having between 20% and 50% of the activity of 1 μM camptothecin)	5.36	4.03	4.39	4.84	5.41	lower MGM than the lead compound 1	4.85	5.47	weak topoisomerase II activity										
O=C1c2ccccc2-c2oc(=O)c3ccccc3c21 [Compound 2, benz[d]indeno[1,2-b]pyran-5,11-dione]	0										> 100	> 100	> 100	> 100	> 100	> 100	> 100	4.07	> 100	
CCCCn1c2c(c3ccccc3c1=O)C(=O)c1cc3c(cc1-2)OCO3 [Compound 13b, 6-(1-Butyl)-5,6-dihydro-5,11-diketo-8,9-methylenedioxy-11H-indeno[1,2-c]isoquinoline]	+ (those compounds having between 20% and 50% of the activity of 1 μM camptothecin)									no effect	9	17	94	> 100	8.2	37	2.9	4.52	38	
COc1cc2c3c(n(C)c(=O)c2cc1OC)-c1cc(OCc2ccccc2)c(OCc2ccccc2)cc1C3=O [Compound 13h, 8,9-Dibenzyloxy-5,6-dihydro-5,11-diketo-6-methyl-2,3-dimethoxy-11H-indeno[1,2-c]isoquinoline]	0										39	46	58	> 100	> 100	> 100	80	4.14	> 100	
C=CCN1C(=O)c2cc(OC)c(OC)cc2[C@H]2C(=O)c3cc4c(cc3[C@H]21)OCO4 (relative stereo) [Compound 22, cis-6-Allyl-5,6,12,13-tetrahydro-2,3-dimethoxy-5,11-dioxo-8,9-(methylenedioxy)-(11H)indeno[1,2-c]isoquinoline]	0	6.44	5.77	5.85	6.42	6.47	lower MGM than the lead compound 1	6.01	6.11	no effect										
CCN1C(=O)c2cc(OC)c(OC)cc2[C@H]2C(=O)c3cc4c(cc3[C@H]21)OCO4 (relative stereo) [Compound 21, cis-6-Ethyl-5,6,12,13-tetrahydro-2,3-dimethoxy-5,11-dioxo-8,9-(methylene-dioxy)-11H-indeno[1,2-c]isoquinoline]	± (those compounds having less than 20% of the activity of 1 μM camptothecin)	6.54	6.36	6.35	6.74	6.54	lower MGM than the lead compound 1	6.09	6.38	no effect										
CCn1c2c(c3cc(OC)c(OC)cc3c1=O)C(=O)c1cc3c(cc1-2)OCO3 [Compound 13k, 6-Ethyl-5,6-dihydro-5,11-diketo-2,3-dimethoxy-8,9-methylenedioxy-11H-indeno[1,2-c]isoquinoline]	± (those compounds having less than 20% of the activity of 1 μM camptothecin)									no effect	2	2.2	3	2.6	2.1	3.6	2.6	5.62	2.3	activity in the topoisomerase I cleavage assay (in words) (topoisomerase I): very weak activity; cytotoxicity (MGM) relative to lead compound 1 ([1]; comparison in words): lower MGM than the lead compound 1
Cn1c2c(c3ccccc3c1=O)C(=O)c1cc(OCc3ccccc3)c(OCc3ccccc3)cc1-2 [Compound 13g, 8,9-Dibenzyloxy-5,6-dihydro-5,11-diketo-6-methyl-11H-indeno[1,2-c]isoquinoline]	0										> 100	72	> 100	> 100	93	88	> 100	4.09	> 100	
COc1ccc(Cn2c3c(c4cc(OC)c(OC)cc4c2=O)C(=O)c2cc4c(cc2-3)OCO4)cc1 [Compound 13f, 6-(p-Anisyl)-2,3-dimethoxy-5,6-dihydro-5,11-diketo-8,9-methylenedioxy-11H-indeno[1,2-c]isoquinoline]	0										> 100	20	> 100	> 100	> 100	> 100	> 100	4.15	76	

Source: patent US6509344B1, “Indenoisoquinolines as antineoplastic agents” (The United States of America as represented by the …, priority 1998, dated 2003)
